Measurements: patent US6693216B2, “Calcium double salts” (Nutrinova Nutrition Specialties & Food Ingredients GmbH, priority 2000, dated 2004)
Read-outs that look alike come from different tables or passages of the source.

Tests used:
Conditions in all cases: Part II, 1 g/l in apple juice pH 4.5, 25° C.
[1] = test system: Acetic acid bacteria
[2] = test system: Yeasts
[3] = test system: Molds I
[4] = test system: Molds II
[5] = test system: Lactic acid bacteria
[6] = test system: Thermophilic bacilli
[7] = test system: Gram-negative bacteria
[8] = test system: Gram-positive bacteria
[9] = test system: Bacilli
[10] = test system: Clostridia
[11] = 1 day after inoculation (2.8 × 10^4)
[12] = 3 days after inoculation (2.8 × 10^4)
[13] = 7 days after inoculation (2.8 × 10^4)
[14] = 14 days after inoculation (2.8 × 10^4)
[15] = 1 day after inoculation (2.6 × 10^4)
[16] = 3 days after inoculation (2.6 × 10^4)
[17] = 7 days after inoculation (2.6 × 10^4)
[18] = 14 days after inoculation (2.6 × 10^4)
[19] = 1 day after inoculation (2.2 × 10^4)
[20] = 3 days after inoculation (2.2 × 10^4)
[21] = 7 days after inoculation (2.2 × 10^4)
[22] = 14 days after inoculation (2.2 × 10^4)
[23] = 1 day after inoculation (2.5 × 10^4)
[24] = 3 days after inoculation (2.5 × 10^4)
[25] = 7 days after inoculation (2.5 × 10^4)
[26] = 14 days after inoculation (2.5 × 10^4)
[27] = 1 day after inoculation (2.7 × 10^4)
[28] = 3 days after inoculation (2.7 × 10^4)
[29] = 7 days after inoculation (2.7 × 10^4)
[30] = 14 days after inoculation (2.7 × 10^4)
[31] = 1 day after inoculation (1.3 × 10^4)
[32] = 3 days after inoculation (1.3 × 10^4)
[33] = 7 days after inoculation (1.3 × 10^4)
[34] = 14 days after inoculation (1.3 × 10^4)
[35] = 1 day after inoculation (2.1 × 10^4)
[36] = 3 days after inoculation (2.1 × 10^4)
[37] = 7 days after inoculation (2.1 × 10^4)
[38] = 14 days after inoculation (2.1 × 10^4)
[39] = 1 day after inoculation (3.3 × 10^4)
[40] = 3 days after inoculation (3.3 × 10^4)
[41] = 7 days after inoculation (3.3 × 10^4)
[42] = 14 days after inoculation (3.3 × 10^4)

| SMILES | Number of surviving microorganisms per g of contaminated sample, Acetic acid bacteria [1, 11] | Number of surviving microorganisms per g of contaminated sample, Acetic acid bacteria [1, 12] | Number of surviving microorganisms per g of contaminated sample, Acetic acid bacteria [1, 13] | Number of surviving microorganisms per g of contaminated sample, Acetic acid bacteria [1, 14] | Number of surviving microorganisms per g of contaminated sample, Yeasts [2, 15] | Number of surviving microorganisms per g of contaminated sample, Yeasts [2, 16] | Number of surviving microorganisms per g of contaminated sample, Yeasts [2, 17] | Number of surviving microorganisms per g of contaminated sample, Yeasts [2, 18] | Number of surviving microorganisms per g of contaminated sample, Molds I [3, 19] | Number of surviving microorganisms per g of contaminated sample, Molds I [3, 20] | Number of surviving microorganisms per g of contaminated sample, Molds I [3, 21] | Number of surviving microorganisms per g of contaminated sample, Molds I [3, 22] | Number of surviving microorganisms per g of contaminated sample, Molds II [4, 23] | Number of surviving microorganisms per g of contaminated sample, Molds II [4, 24] | Number of surviving microorganisms per g of contaminated sample, Molds II [4, 25] | Number of surviving microorganisms per g of contaminated sample, Molds II [4, 26] | Number of surviving microorganisms per g of contaminated sample, Lactic acid bacteria [5, 27] | Number of surviving microorganisms per g of contaminated sample, Lactic acid bacteria [5, 28] | Number of surviving microorganisms per g of contaminated sample, Lactic acid bacteria [5, 29] | Number of surviving microorganisms per g of contaminated sample, Lactic acid bacteria [5, 30] | further results |
| --- | --- | --- | --- | --- | --- | --- | --- | --- | --- | --- | --- | --- | --- | --- | --- | --- | --- | --- | --- | --- | --- |
| CC(=O)[O-].CC(=O)[O-].[Ca+2] [Calcium Acetate] | 8.4 × 10^5 CFU/g | >3.0 × 10^6 CFU/g | >3.0 × 10^6 CFU/g | 1.5 × 10^6 CFU/g | 1.3 × 10^6 CFU/g | 2.5 × 10^6 CFU/g | >3.0 × 10^6 CFU/g | >3.0 × 10^6 CFU/g | 1.1 × 10^4 CFU/g | 2.2 × 10^3 CFU/g | 7.6 × 10^3 CFU/g | 4.5 × 10^4 CFU/g | 1.5 × 10^4 CFU/g | 1.2 × 10^4 CFU/g | >1.0 × 10^5 CFU/g | 3.5 × 10^4 CFU/g | 5.6 × 10^5 CFU/g | >3.0 × 10^6 CFU/g | >3.0 × 10^6 CFU/g | 2.4 × 10^4 CFU/g | Number of surviving microorganisms per g of contaminated sample, Thermophilic bacilli [6, 31]: 2.1 × 10^3 CFU/g; Number of surviving microorganisms per g of contaminated sample, Thermophilic bacilli [6, 32]: 6.0 × 10^2 CFU/g; Number of surviving microorganisms per g of contaminated sample, Thermophilic bacilli [6, 33]: <10 CFU/g; Number of surviving microorganisms per g of contaminated sample, Thermophilic bacilli [6, 34]: <10 CFU/g; Number of surviving microorganisms per g of contaminated sample, Gram-negative bacteria [7, 27]: 1.7 × 10^4 CFU/g; Number of surviving microorganisms per g of contaminated sample, Gram-negative bacteria [7, 28]: 1.3 × 10^4 CFU/g; Number of surviving microorganisms per g of contaminated sample, Gram-negative bacteria [7, 29]: 2.2 × 10^3 CFU/g; Number of surviving microorganisms per g of contaminated sample, Gram-negative bacteria [7, 30]: <100 CFU/g; Number of surviving microorganisms per g of contaminated sample, Gram-positive bacteria [8, 35]: 1.1 × 10^5 CFU/g; Number of surviving microorganisms per g of contaminated sample, Gram-positive bacteria [8, 36]: 9.0 × 10^4 CFU/g; Number of surviving microorganisms per g of contaminated sample, Gram-positive bacteria [8, 37]: 6.7 × 10^3 CFU/g; Number of surviving microorganisms per g of contaminated sample, Gram-positive bacteria [8, 38]: 5.9 × 10^3 CFU/g; Number of surviving microorganisms per g of contaminated sample, Bacilli [9, 39]: 1.6 × 10^3 CFU/g; Number of surviving microorganisms per g of contaminated sample, Bacilli [9, 40]: 1.0 × 10^3 CFU/g; Number of surviving microorganisms per g of contaminated sample, Bacilli [9, 41]: 1.8 × 10^3 CFU/g; Number of surviving microorganisms per g of contaminated sample, Bacilli [9, 42]: 1.8 × 10^3 CFU/g |
| O=C[O-].O=C[O-].[Ca+2] [Calcium Formate] | 8.7 × 10^5 CFU/g | 2.5 × 10^6 CFU/g | >3.0 × 10^6 CFU/g | >3.0 × 10^6 CFU/g | 7.4 × 10^5 CFU/g | 1.0 × 10^6 CFU/g | >3.0 × 10^6 CFU/g | >3.0 × 10^6 CFU/g | 4.1 × 10^3 CFU/g | 2.9 × 10^3 CFU/g | 1.9 × 10^3 CFU/g | 2.6 × 10^3 CFU/g | 1.0 × 10^4 CFU/g | 1.5 × 10^3 CFU/g | >3.0 × 10^4 CFU/g | 3.9 × 10^5 CFU/g | 4.4 × 10^3 CFU/g | 2.5 × 10^4 CFU/g | >3.0 × 10^6 CFU/g | >3.0 × 10^6 CFU/g | Number of surviving microorganisms per g of contaminated sample, Thermophilic bacilli [6, 31]: 2.3 × 10^3 CFU/g; Number of surviving microorganisms per g of contaminated sample, Thermophilic bacilli [6, 32]: 8.0 × 10^2 CFU/g; Number of surviving microorganisms per g of contaminated sample, Thermophilic bacilli [6, 33]: 6.0 × 10^2 CFU/g; Number of surviving microorganisms per g of contaminated sample, Thermophilic bacilli [6, 34]: <10 CFU/g; Number of surviving microorganisms per g of contaminated sample, Gram-negative bacteria [7, 27]: 1.5 × 10^4 CFU/g; Number of surviving microorganisms per g of contaminated sample, Gram-negative bacteria [7, 28]: 3.6 × 10^3 CFU/g; Number of surviving microorganisms per g of contaminated sample, Gram-negative bacteria [7, 29]: 2.3 × 10^3 CFU/g; Number of surviving microorganisms per g of contaminated sample, Gram-negative bacteria [7, 30]: 75 CFU/g; Number of surviving microorganisms per g of contaminated sample, Clostridia ([10]; 1 day after inoculation (2.9 × 10^4)): 4.0 × 10^2 CFU/g; Number of surviving microorganisms per g of contaminated sample, Clostridia ([10]; 3 days after inoculation (2.9 × 10^4)): 2.0 × 10^2 CFU/g; Number of surviving microorganisms per g of contaminated sample, Clostridia ([10]; 7 days after inoculation (2.9 × 10^4)): <100 CFU/g; Number of surviving microorganisms per g of contaminated sample, Clostridia ([10]; 14 days after inoculation (2.9 × 10^4)): 10 CFU/g; Number of surviving microorganisms per g of contaminated sample, Gram-positive bacteria [8, 35]: 2.2 × 10^4 CFU/g; Number of surviving microorganisms per g of contaminated sample, Gram-positive bacteria [8, 36]: 8.9 × 10^3 CFU/g; Number of surviving microorganisms per g of contaminated sample, Gram-positive bacteria [8, 37]: 4.6 × 10^3 CFU/g; Number of surviving microorganisms per g of contaminated sample, Gram-positive bacteria [8, 38]: 2.0 × 10^3 CFU/g; Number of surviving microorganisms per g of contaminated sample, Bacilli [9, 39]: 1.7 × 10^3 CFU/g; Number of surviving microorganisms per g of contaminated sample, Bacilli [9, 40]: 1.5 × 10^3 CFU/g; Number of surviving microorganisms per g of contaminated sample, Bacilli [9, 41]: 1.4 × 10^3 CFU/g; Number of surviving microorganisms per g of contaminated sample, Bacilli [9, 42]: 1.7 × 10^3 CFU/g |
